Data set [1] in a line: logP (logarithm of the octanol/water partition coefficient). The class given is physicochemical. From the text: Hydrophobic photographic additives are conveniently incorporated in a hydrophilic colloid layer of a photographic element by dissolving the hydrophobic additive in an organic solvent and then dispersing the organic solution in an aqueous solution to form a homogenized dispersion. […] The low hydrophobicity is essential to achieve efficient post-process migration of these compounds from the adjacent non-imaging layers into the magenta imaging layer. The combination of low hydrophobicity and high melting point makes it difficult to prepare stable dispersions of these compounds by homogenization in an aqueous solution even if relatively large amounts of water-immiscible organic solvent is used to dissolve the compounds. The exemplified compounds are accordingly dispersed in the examples of U.S. Ser. No. 08/255,512 by a solid particle dispersion process. In this method size reduction of the epoxy compound is achieved by attrition with media such as zirconia beads instead of by shearing action on a liquid solution. The solid particle dispersion process is relatively inefficient compared to homogenization and often requires several days of grinding in order to achieve the desired level of size reduction.

Data set [2] can be described thus: Dispersion stability in constant temperature bath at 45 °C. The class given is physicochemical. As to conditions: 3.0 g epoxide with 1.0 g tri(2-ethylhexyl) phosphate in gelatin/Alkanol XC, E1 disintegrated with significant settling, SI-4 no evidence of settling or macroscopic coagulation. The procedure: 3.0 grams of E1 was combined with 1.0 gram of the water-immiscible organic solvent tri(2-ethylhexyl) phosphate. The mixture was heated until the oil phase was homogeneous. 26.0 grams of a 12% w/w solution of Type IV gelatin in water was combined with 43.8 grams of water and 4.0 grams of Alkanol XC to constitute the aqueous phase. The aqueous phase was maintained at 70° C. The oil phase was combined with the aqueous phase while stirring. The mixture was then passed twice through the microfluidizer at a pressure of 10,000 psi to obtain the dispersion.
Both dispersions were placed in a constant temperature bath set at 45° C.

Structures are written as SMILES.

Turning to `O=C(CCCCCCCCC1CO1)Oc1ccc(NS(=O)(=O)c2ccccc2)cc1` (stereo not shown) [SI-4], the logP in data set [1] worked out at 4.3. The “time at which dispersion disintegrated / showed settling or macroscopic coagulation” value in data set [2] was over 12 h.

Turning to `O=C(CCCCCCCCC1CO1)Oc1ccc(NS(=O)(=O)c2ccc(F)cc2F)cc1` (stereo not shown) [E1], in data set [1], the logP amounted to 4.5. Further, the “time at which dispersion disintegrated / showed settling or macroscopic coagulation” value in data set [2] is 6 h.

(Values after US5627017A, “Low melting point ionizable epoxy scavengers for residual magenta couplers” (Eastman Kodak Company, priority 1995, dated 1997).)
